Measurements: ChEMBL document CHEMBL1152883, “1-Amido-1-phenyl-3-piperidinylbutanes--CCR5 antagonists for the treatment of HIV: part 2” (Bioorg Med Chem Lett, 2009)

What was measured:
[1] = Lipophilicity, log D at pH 7.4; type: physicochemical; conditions: buffer
[2] = (§1) Metabolic stability in human liver microsomes assessed as clearance measured per mg of protein; type: ADME, Microsome; conditions: liver microsomes
[3] = Apparent permeability from apical to basolateral side of human Caco-2 cells; type: ADME, cell-based; conditions: read-out: permeability
[4] = Apparent permeability from basolateral to apical side of human Caco-2 cells; type: ADME, cell-based; conditions: read-out: permeability
[5] = Clearance in iv dosed Sprague-Dawley rat; type: ADME, organism-based; conditions: in vivo
[6] = Volume of distribution in iv dosed Sprague-Dawley rat; type: ADME, organism-based; conditions: in vivo
[7] = Half life in iv dosed Sprague-Dawley rat; type: ADME, organism-based; conditions: in vivo
Liver microsomes = experiment: as §1; type: ADME, Microsome; conditions: microsomes
[8] = tested on: Human immunodeficiency virus 1; experiment: Antiviral activity against HIV1 BAL assessed as inhibition of viral replication; type: functional; conditions: Human immunodeficiency virus 1, BAL
[9] = Oral bioavailability in Sprague-Dawley rat; type: ADME, organism-based; conditions: in vivo

| logD ([1]; read-out: logD) | microsomal CLint [2] [µL/min/mg] | Structure (SMILES) | further results |
| --- | --- | --- | --- |
| 2.2 | < 7 | Cc1nnc(C(C)C)n1C1CCN([C@@H](C)C[C@H](NC(=O)C2CCC(F)(F)CC2)c2ccccc2)CC1 | – |
| 1.5 | < 7 | COC(=O)N[C@@H](CC(C)N1CCC(n2c(C)nnc2C(C)C)CC1)c1ccccc1 (mixture of isomers) | – |
| 0.5 | – | Cc1nnc(C(C)C)n1C1CCN(C(C)C[C@H](NC(=O)C2CCS(=O)(=O)CC2)c2ccccc2)CC1 (mixture of isomers) | – |
| – | < 8 | Cc1nnc(C(C)C)n1C1CCN(C(C)C[C@H](NC(=O)C2CC2)c2ccccc2)CC1 (mixture of isomers) | – |
| 2.5 | 139 | Cc1nnc(C(C)C)n1C1CCN(C(C)C[C@H](NC(=O)C2CCCCC2)c2ccccc2)CC1 (mixture of isomers) | – |
| 1.9 | 20 | Cc1nnc(C(C)C)n1[C@@H]1C[C@H]2CC[C@@H](C1)N2CC[C@H](NC(=O)C1CCC(F)(F)CC1)c1ccccc1 [MARAVIROC] | Papp A→B [3]: 1 ×10⁻⁶ cm/s; Papp B→A [4]: 10 ×10⁻⁶ cm/s; clearance [5]: 74 mL/min/kg; Vd [6]: 6.5 L/kg; half-life [7]: 0.9 h |
| – | 16 | Cc1nnc(C(C)C)n1C1CCN(C(C)C[C@H](NC(=O)C2CCC(F)(F)CC2)c2ccccc2)CC1.Cl (mixture of isomers; form 2) | logD [1]: 2 |
| – | < 8 | Cc1nnc(C(C)C)n1C1CCN(C(C)C[C@H](NC(=O)N2CCOCC2)c2ccccc2)CC1 (mixture of isomers) | – |
| 2 | – | Cc1nnc(C(C)C)n1C1CCN(C(C)C[C@H](NC(=O)C2CCC(F)(F)CC2)c2ccccc2)CC1 (mixture of isomers; form 1) | CL (Liver microsomes): 19 µL/min/mg |
| – | < 8 | CC(=O)N[C@@H](CC(C)N1CCC(n2c(C)nnc2C(C)C)CC1)c1ccccc1 (mixture of isomers) | – |
| – | < 8 | Cc1nnc(C(C)C)n1C1CCN(C(C)C[C@H](NC(=O)C(C)C)c2ccccc2)CC1 (mixture of isomers) | – |
| – | < 8 | CC(=O)N1CCC(C(=O)N[C@@H](CC(C)N2CCC(n3c(C)nnc3C(C)C)CC2)c2ccccc2)CC1 (mixture of isomers) | – |
| – | 61.6 | Cc1nnc(C(C)C)n1C1CCN(C(C)C[C@H](NC(=O)COCC(F)(F)F)c2ccccc2)CC1 (mixture of isomers) | – |
| – | 10.8 | Cc1nnc(C(C)C)n1C1CCN(C(C)C[C@H](NC(=O)C2CCOCC2)c2ccccc2)CC1 (mixture of isomers) | – |
| 1.9 | < 7 | Cc1nnc(C(C)C)n1C1CCN(C(C)C[C@H](NC(=O)C2CC(F)(F)C2)c2ccccc2)CC1 (mixture of isomers; form 2) | – |
| 1.9 | – | Cc1nnc(C(C)C)n1C1CCN(C(C)C[C@H](NC(=O)CC2CC2)c2ccccc2)CC1 (mixture of isomers) | – |
| – | – | Cc1nnc(C(C)C)n1C1CCN(C(C)C[C@H](NC(=O)C2CC(F)(F)C2)c2ccccc2)CC1 (mixture of isomers; form 1) | logD [1]: 2; CL (Liver microsomes): < 7 µL/min/mg |
| – | 11.4 | Cc1nnc(C(C)C)n1C1CCN(C(C)C[C@H](NC(=O)CC(F)(F)F)c2ccccc2)CC1 (mixture of isomers) | – |
| 2.2 | 12 | Cc1nnc(C(C)C)n1C1CCN([C@H](C)C[C@H](NC(=O)C2CC(F)(F)C2)c2ccccc2)CC1 | IC90 [8]: 1.8 nM; clearance [5]: 92 mL/min/kg; Vd [6]: 10 L/kg; half-life [7]: 1.3 h; bioavailability [9]: 6% |
| – | – | Cc1nnc(C(C)C)n1[C@H]1C[C@H]2CC[C@@H](C1)N2CC[C@H](NC(=O)C1CCC(F)(F)CC1)c1ccccc1 [MARAVIROC] | IC90 [8]: 2.8 nM |

| Structure (SMILES) | logD ([1]; read-out: logD) | microsomal CLint [2] [µL/min/mg] | further results |
| --- | --- | --- | --- |
| Cc1nc(C(C)C)n([C@@H]2C[C@H]3CC[C@@H](C2)N3CC[C@H](NC(=O)C2CCC(F)(F)CC2)c2ccccc2)n1 | 2.7 | 6 | Papp A→B [3]: 11 ×10⁻⁶ cm/s; Papp B→A [4]: 26 ×10⁻⁶ cm/s |
